Like-named read-outs stand apart in the source and are kept apart here.
How the values were obtained:
rhinovirus serotype 14 = assay: Protection of HeLa cells from rhinovirus-induced cytopathogenicity (MTT), serotype 14; conditions: Enterovirus, 72 h, read-out: MIC, serotype 14
[1] = system: different rhinoviruses serotypes; assay: Protection of HeLa cells from rhinovirus-induced cytopathogenicity (MTT), all serotypes of Table 3; conditions: for EC50: Enterovirus, HeLa, 72 h, read-out: MIC, summary over the serotypes; for S.I. / effectiveness and selectivity as rhinoviruses inhibiting agent: Table 3; for S.I.: nine serotypes, HeLa cells
rhinovirus serotype 21 = assay: Protection of HeLa cells from rhinovirus-induced cytopathogenicity (MTT), serotype 21; conditions: Enterovirus, 72 h, read-out: MIC, serotype 21
rhinovirus serotype 30 = assay: Protection of HeLa cells from rhinovirus-induced cytopathogenicity (MTT), serotype 30; conditions: Enterovirus, 72 h, read-out: MIC, serotype 30
in vitro [2] = conditions: human, hela cells
HRV-14 [3] = assay: Viral plaque reduction, HRV-14 on HeLa cells; format: cell-based, human rhinovirus; conditions: for EC50: Rhinovirus B, HeLa cells, read-out: MIC, HRV-14; for S.I. (Selectivity Index): ratio MTL/MIC / S.I. (Selectivity Index): MTL/MIC ratio: HeLa MTL / HRV-14 MIC
rhinovirus serotype 2 = assay: Protection of HeLa cells from rhinovirus-induced cytopathogenicity (MTT), serotype 2; conditions: Enterovirus, 72 h, read-out: MIC, serotype 2
rhinovirus serotype 22 = assay: Protection of HeLa cells from rhinovirus-induced cytopathogenicity (MTT), serotype 22; conditions: Enterovirus, 72 h, read-out: MIC, serotype 22
rhinovirus serotype 86 = assay: Protection of HeLa cells from rhinovirus-induced cytopathogenicity (MTT), serotype 86; conditions: Enterovirus, 72 h, read-out: MIC, serotype 86
rhinovirus serotype 15 = assay: Protection of HeLa cells from rhinovirus-induced cytopathogenicity (MTT), serotype 15; conditions: Enterovirus, 72 h, read-out: MIC, serotype 15
rhinovirus serotype 50 = assay: Protection of HeLa cells from rhinovirus-induced cytopathogenicity (MTT), serotype 50; conditions: Enterovirus, 72 h, read-out: MIC, serotype 50
rhinovirus serotype 89 = assay: Protection of HeLa cells from rhinovirus-induced cytopathogenicity (MTT), serotype 89; conditions: Enterovirus, 72 h, read-out: MIC, serotype 89
rhinoviruses = conditions: literature; interaction with proteins of the virus capsid; cited from earlier work
HRV-14 [4] = conditions: Table 1; literature value; read-out: MIC, HRV-14 (comparison compounds); cited from earlier work
[5] = system: Coxsackie Virus B1 (Coxs); assay: Viral plaque reduction, Coxs on Vero cells; format: cell-based; conditions: Table 1, 50% plaque reduction, 37° C, read-out: MIC, Coxs
[6] = system: Vesicular Stomatitis Virus (VSV); assay: microbe, parasite or virus in culture; format: cell-based; conditions: Vero, read-out: MIC, VSV
Virus Vaccinicum (VV) = assay: Viral plaque reduction, VV on Vero cells; format: cell-based; conditions: Table 1, 50% plaque reduction, 37° C, read-out: MIC, VV
[7] = system: Poliomyelitis Virus type 1 (Sb-1); assay: microbe, parasite or virus in culture; format: cell-based; conditions: Vero, read-out: MIC, Sb-1
[8] = system: Herpes Simplex Virus type 1 (HSV-1); assay: Viral plaque reduction, HSV-1 on Vero cells; format: cell-based; conditions: Human alphaherpesvirus 1, Vero, read-out: MIC, HSV-1
in vitro [9] = conditions: monkey, vero cells
[10] = Table 2, 50% reduction of HRV14 plaques
[11] = HRV14, Table 1 and text, 50% plaque reduction, 33° C

Compound | EC50 (rhinovirus serotype 14) | EC50 [1] | S.I. [1] | EC50 (rhinovirus serotype 21) | EC50 (rhinovirus serotype 30) | MNTC (in vitro [2]) | EC50 (HRV-14 [3]; [10]) | S.I. (Selectivity Index): ratio MTL/MIC (HRV-14 [3]; Table 2) | EC50 (rhinovirus serotype 2) | EC50 (rhinovirus serotype 22) | EC50 (rhinovirus serotype 86) | EC50 (rhinovirus serotype 15) | EC50 (rhinovirus serotype 50) | EC50 (rhinovirus serotype 89) | inhibition of rhinoviruses (rhinoviruses) | S.I. (Selectivity Index): MTL/MIC ratio (HRV-14 [3]; Table 1 and text) | EC50 [5] | effectiveness and selectivity as rhinoviruses inhibiting agent [1] | EC50 (HRV-14 [3]; [11]) | EC50 [6] | other results
CCOC(=O)c1ccc(OCCCCC(=O)c2cc(C=O)n(C)c2)cc1 [Compound 393, 4-[5-[4-(ethoxycarbonyl)phenoxy]pentanoyl]-1-methyl-1H-pyrrole-, -2-carboxaldeide] | 2000 nM | 1400 nM | 36 | 2200 nM | 1100 nM | 50 µM | 1400 nM | 36 | 500 nM | 1100 nM | 140 nM | 2200 nM | 800 nM | 200 nM |  |  |  |  |  |  | 
4-ethoxy-2'-hydroxy-4', 6-dimethoxychalcone [RO 09-0410] |  |  |  |  |  |  |  |  |  |  |  |  |  |  | inhibit a wide range of rhinoviruses |  |  |  |  |  | 
Cc1cc(CCCCCCCOc2ccc(C3=NCCO3)cc2)on1 [WIN 51711, 5-{7-[4-(4,5-dihydro-2-oxazolyl)phenoxy]heptyl}-3-methyl-isoxazole, reference compound] | 600 nM | 1200 nM | 23 | 600 nM | 1700 nM |  |  | 45 | 1700 nM | 3500 nM | 60 nM | 300 nM | 2000 nM | 900 nM | inhibit a wide range of rhinoviruses | 45 |  |  |  |  | EC50 (HRV-14 [4]): 400 nM
CCOC(=O)c1ccc(OCCCCC(=O)c2ccc(Cl)s2)cc1 [Compound 360] | 2700 nM | 760 nM | > 717 |  | 50 nM | > 545 µM |  |  | 100 nM | 1400 nM | 300 nM | 1600 nM | 400 nM | 300 nM |  | > 272 | > 190000 nM | the most effective and selective | 2000 nM | > 190000 nM | cytotoxicity levels (HeLa cells): low cytotoxicity levels; EC50 (Virus Vaccinicum (VV)): > 190000 nM; EC50 [7]: 80000 nM; EC50 [8]: > 190000 nM; MNTC (in vitro [9]): > 190 µM
CCOC(=O)c1ccc(OCCCCC(=O)c2ccc(C)s2)cc1 [Compound 514] | 1700 nM | 630 nM | > 917 | 100 nM | 140 nM | > 578 µM | 3400 nM | > 170 | 500 nM | 1400 nM | 140 nM | 900 nM | 400 nM | 300 nM |  |  |  | the most effective and selective |  |  | 
Cn1cc(C(=O)CCCCOc2ccc(C(=O)O)cc2)cc1C=O [Compound 394] |  |  |  |  |  | > 610 µM |  |  |  |  |  |  |  |  |  | > 87 | > 380000 nM |  | 7000 nM | > 380000 nM | activity and selectivity to HRV-14 compared with the two previously known compounds (HRV-14 [3]; Table 1): less effective, but even more selective to HRV-14; EC50 (Virus Vaccinicum (VV)): > 380000 nM; EC50 [7]: > 380000 nM; EC50 [8]: > 380000 nM; MNTC (in vitro [9]): 380 µM

From patent US5278184A, “Synthetic derivatives of pyrrole and pyrrolidine suitable for the therapy of infections caused by rhinoviruses” (Repla Chemical Ltd., priority 1991, dated 1994)
